{"source": "patent US20260191815A1", "about": "“THIOACRYLAMIDE DERIVATIVES FOR USE IN THE PREVENTION OR TREATMENT OF LIVER FIBROSIS” (CMR CUREDIAB METABOLIC RESEARCH GMBH, priority 2022, published 2026)", "key": {"[1]": {"system": "IL-6 secretion in 3D PHH:NPC spheroids", "assay": "IL-6 secretion (Luminex) by 3D PHH:NPC NASH spheroids", "assay_type": "cell-based, human", "settings": "for IL-6 levels compared to NASH: NASH medium", "procedure": "(§1) Experiments were conducted using HepaPredict's (HepaPredict AB, Sweden) 3D primary human hepatocyte (PHH) spheroid NASH model (e.g. as published in Bell et al. Sci Rep. 2016 May 4; 6:25187. doi: 10.1038/srep25187).\nCryopreserved primary human hepatocytes were obtained from BioIVT (USA) and nonparenchymal cells (NPC) from LifeNetHealth (USA). After thawing, PHH-NPC cocultures were seeded in a multi-well 96-well Elplasia plate (Corning) in William's E medium containing 11 mM glucose, 10 μg/mL (control) or 10 mg/mL insulin (NASH), 100 nM dexamethasone, 5.5 mg/L transferrin, 6.7 μg/L selenite, 2 mM L-glutamine, 1 U/mL penicillin, 0.1 mg/mL streptomycin, and 10% fetal bovine serum (FBS). PHH-NPC cocultures were seeded in ratio of 6:1 PHH:NPC with a total of 40,000 PHH per well. When spheroids were formed, FBS was phased out and spheroids were maintained in either the same media to provide the negative control (“Ctrl”), or with addition of albumin-conjugated free fatty acid (FFA), comprised of 240 μM palmitic acid and 240 μM oleic acid (NASH medium) to provide the positive control (“NASH”). Compound exposure was conducted in NASH medium with medium exchanges every 48-72 hours.\nAfter spheroid formation, cells were exposed to up to five different concentrations of the candidate molecules HK1 or HK3 (0.1 μM, 0.3 μM, 1 μM, 3 μM, and 10 μM) with or without FFA in the culture medium. All compound stocks and dilutions were prepared in DMSO, aliquoted and stored protected from light at −20° C. Fresh dosing solutions were prepared from these aliquots on each dosing day. All endpoints were evaluated after 14 days of exposure.\nFor statistical comparisons, normalized values for a given condition were compared to either the corresponding vehicle (DMSO) controls or the respective FFA (NASH) controls at the same time point using heteroscedastic unpaired two-tailed t-tests.\nSecreted cytokines (IL-6 and IL-8) were measured in culture supernatants using a customized Magnetic Luminex Performance Assay (Human Cytokine Panel A, R&D Systems). The multiplexed assay was performed following the manufacturer's instructions. Standard curves were generated by resuspending the human recombinant cytokines mixture at concentrations ranging from […] with 8 points at 1:3 series dilution for the customized selection of […], IL-6 and IL-8/CXCL8. […] The fluorescence intensity was measured using a Bio-Plex 200 system (Bio-Rad), the median fluorescence intensity of each analyte was analyzed with the Bio-Plex Manage software (version 6.2) using a 5-parameter regression algorithm. […]\nTo assess the effect of the two candidate compounds HK1 and HK3 on hepatic inflammation, we measured levels of the pro-inflammatory cytokines IL-6 and IL-8."}, "[2]": {"system": "IL-8 secretion in 3D PHH:NPC spheroids", "assay": "IL-8 secretion (Luminex) by 3D PHH:NPC NASH spheroids", "assay_type": "cell-based, human", "settings": "across 1-10 μM, NASH medium", "procedure": "as §1\nCryopreserved primary human hepatocytes were obtained from BioIVT (USA) and nonparenchymal cells (NPC) from LifeNetHealth (USA). After thawing, PHH-NPC cocultures were seeded in a multi-well 96-well Elplasia plate (Corning) in William's E medium containing 11 mM glucose, 10 μg/mL (control) or 10 mg/mL insulin (NASH), 100 nM dexamethasone, 5.5 mg/L transferrin, 6.7 μg/L selenite, 2 mM L-glutamine, 1 U/mL penicillin, 0.1 mg/mL streptomycin, and 10% fetal bovine serum (FBS). […]\nAfter spheroid formation, cells were exposed to up to five different concentrations of the candidate molecules HK1 or HK3 (0.1 μM, 0.3 μM, 1 μM, 3 μM, and 10 μM) with or without FFA in the culture medium. […] All endpoints were evaluated after 14 days of exposure. […]\nSecreted cytokines (IL-6 and IL-8) were measured in culture supernatants using a customized Magnetic Luminex Performance Assay (Human Cytokine Panel A, R&D Systems). […] The fluorescence intensity was measured using a Bio-Plex 200 system (Bio-Rad), the median fluorescence intensity of each analyte was analyzed with the Bio-Plex Manage software (version 6.2) using a 5-parameter regression algorithm. […]"}}, "note": "Entries after “also recorded” stand apart in the source; their conditions may differ."}
{"compound": "Cc1cc(NC(=S)/C(C#N)=C(\\O)C2CC2)ccc1[N+](=O)[O-]", "note": "[HK3, 2-Cyano-3-cyclopropyl-3-hydroxy-N-(3-methyl-4-nitro-phenyl)-thioacrylamide]", "values": [{"measurement": "IL-6 levels compared to NASH", "setting": "[1]; 1 μM", "result": 73, "unit": "%"}, {"measurement": "IL-6 levels compared to NASH", "setting": "[1]; 3 μM", "result": 55, "unit": "%"}, {"measurement": "IL-6 levels compared to NASH", "setting": "[1]; 10 μM", "result": 72, "unit": "%"}, {"measurement": "IL-6 secretion, effect in words", "setting": "[1]; NASH spheroids, 1-10 μM", "result": "slight decrease; also recorded: stronger decrease"}, {"measurement": "IL-8 levels compared to NASH", "setting": "[2]", "result": "80-91%"}]}
